Test results reported in patent publication US10053485B2, “Cytotoxic agents that preferentially target leukemia inhibitory factor (LIF) for the treatment of malignancies and as new contraceptive agents” (Evestra, Inc., priority 2015, dated 2018).
Read-outs that look alike come from different tables or passages of the source.

Tests used:
[1] = system: unmodified MCF-7 human breast cancer cells; experiment: LIF specificity assay, unmodified cells; format: cell-based
A549 (Lung cancer) = experiment: Short term (72 h) cytotoxicity assay; format: cell-based, human; settings: A549, 72 h cytotoxicity
U87-MU (Glioma cells) = experiment: Short term (72 h) cytotoxicity assay; format: cell-based
[2] = system: LIF-overexpressing MCF-7 (MCF-7 LIF) human breast cancer cells; experiment: LIF specificity assay, LIF-overexpressing cells; format: cell-based
U251 (Glioma) = experiment: Short term (72 h) cytotoxicity assay; format: cell-based, human; settings: U251, 72 h cytotoxicity
[3] = system: IGROV-1 (Ovarian cancer cells); experiment: Short term (72 h) cytotoxicity assay; format: cell-based; settings: Homo sapiens; IGROV-1, 72 h cytotoxicity
MDA-MB-231 (TNBC cells) = experiment: Short term (72 h) cytotoxicity assay; format: cell-based; settings: Homo sapiens; MDA-MB-231, 72 h cytotoxicity
[4] = system: T47D (ER+ PR+ Breast Cancer); experiment: Short term (72 h) cytotoxicity assay; format: cell-based; settings: Homo sapiens
[5] = system: various cancer cells lines; experiment: Cytotoxicity assays in various cancer cell lines; format: cell-based; settings: in words
Procedure: Briefly, 5×10^3 cells were seeded in 96-well plates and incubated with compounds (0.0001-10 μmol/L) or dimethyl sulfoxide (DMSO; 0.02% v/v) for 24, 48, and 72 hours at 37° C. and cell viability was measured using a Fluoroscan plate reader.

[6] = system: Ishikawa (Endometrial Cancer); experiment: Short term (72 h) cytotoxicity assay; format: cell-based; settings: Homo sapiens
[7] = system: PC3 (AR− Prostate Cancer); experiment: Short term (72 h) cytotoxicity assay; format: cell-based; settings: Homo sapiens, PC3, 72 h cytotoxicity
T47D breast cancer cells = experiment: Soft agar colony formation assay; format: cell-based, human
Procedure: Colonies of cancer cells formed in soft agar in the presence and absence of the testing compounds is a standard assay to interpret in-vitro tumorigenic potential in the basal layer. Agar was prepared by mixing 1% DNA grade agar melted and cooled to 40° C. with an equal volume of (2×) Dulbecco's Modified Eagle's Medium (DMEM) to obtain 0.5% agar that was dispersed in a 6-well plate and allowed to solidify. A total of 0.6% agar was prepared in RPMI medium and mixed together with T47D cells (0.5×10^6 cells/mL) and immediately plated on the basal layer in the presence or absence of testing compounds. The cultures were incubated at 37° C. in a CO2 incubator for 2 weeks, and colonies were stained with 0.005% crystal violet and observed under a light microscope.

LNCaP (AR+ Prostate) = experiment: Short term (72 h) cytotoxicity assay; format: cell-based
[8] = system: human endometrial stromal cells (HESC); experiment: Decidualization assay, actin cytoskeleton by phalloidin staining; format: cell-based; settings: FIG. 3
Procedure: Decidualization studies: The above compounds were investigated originally for the treatment of endometriosis. The compounds were tested in a decidualization assay using human endometrial stromal fibroblast (HESC) cells. In preparation for the possibility of embryonic attachment, the stromal cells in the endometrium undergo extensive waves of proliferation, remodeling, and terminal differentiation that transforms the endometrium into an endocrine gland, called decidua. This transformation is called decidualization and it is under the control by ovarian hormones.
The level of apoptosis increases from the proliferative phase through menstrual cycle and peaks at menses. […] However if the cells are subjected to conditions that induce decidualization, stromal cells will begin to differentiate instead of undergoing apoptosis.
Briefly, human stromal endometrial cells were plated in the presence and absence of progesterone and allow undergoing decidualization. The cells treated with test compounds of different concentrations and stained for actin cytocketal morphology using phalloidin staining and monitored under fluorescent microscope.

[9] = system: Patient derived tumor (melanoma): p53, LIF, MDM2, pSTAT3, Ki67; experiment: Immunohistochemistry analysis of patient derived tumor; format: cell-based, human; settings: 10 nM and 1 uM for 5 days, FIG. 10
Procedure: Patient derived tumor (melanoma) was treated with the compounds at 10 nM and 1 uM for 5 days in RPMI medium and harvested on day 6 using established protocol and immunohistochemistry was performed for different antibodies including p53, LIF, MDM2, pSTAT3, Ki67.

[10] = system: human umbilical vein endothelial cells (HUVEC); experiment: Matrigel in vitro HUVECs tube formation assay (angiogenesis); format: cell-based; settings: 1 μM concentration, all measured time points
Procedure: Matrigel in vitro HUVECs tube formation assay: The tube formation assay was performed using 12-well plate coated with 100 μL Matrigel basement membrane matrix (BD Bioscience) per well and polymerized at 37° C. for 30 min. Human umbilical vascular endothelial cells (HUVECs) suspended in M199 medium containing 2% FBS were plated on the Matrigel at a density of 2×10^5 cells/well. […] After 8 h, the Matrigel-induced morphological changes were photographed and the extent of capillary tube formation was evaluated by measuring the total tube length per field.

[11] = system: MDM2 / P53 in MCF-7 cells; experiment: P53 / MDM2 levels in MCF-7 cells (FIG. 5); format: cell-based, human
[12] = system: MCF-7 (ER+ Breast Cancer); experiment: Short term (72 h) cytotoxicity assay; format: cell-based; settings: Homo sapiens, MCF7; MCF-7, 72 h cytotoxicity
[13] = Homo sapiens, MCF7, cytotoxicity
[14] = Homo sapiens, MCF7, cytotoxicity, LIF-overexpressing MCF-7, read-out: MCF-7 LIF IC50

Compound | IC50 [3] | IC50 [1, 13] | IC50 (MDA-MB-231 (TNBC cells)) | IC50 (U87-MU (Glioma cells); Glioma cell) | IC50 [2, 14] | IC50 (U251 (Glioma); Homo sapiens, U-251) | other results
C#CC(F)(F)[C@]1(O)CCC2C3CCC4=CC(=O)CCC4=C3C(c3ccc(N(C)C)cc3)C[C@@]21C (stereo partly drawn) [EC352, 17α-(1,1-difluoro-2-propyn-1-yl)-17β-hydroxy-11β-[4-p-(dimethylamino)phenyl]estra-4,9-dien-3-one] |  |  |  |  |  |  | IC50 ([1]; cytotoxicity): > 10000 nM; IC50 (A549 (Lung cancer)): 45 nM; IC50 (U87-MU (Glioma cells)): 50 nM; Fold Change ([2]; MCF-7 vs. MCF-7 LIF cytotoxicity (specificity towards LIF)): 0; IC50 ([2]; cytotoxicity, LIF-overexpressing MCF-7, read-out: MCF-7 LIF IC50): > 10000 nM; IC50 (U251 (Glioma)): 40 nM
C#CC(F)(F)[C@]1(O)CCC2C3CCC4=CC(=O)CCC4=C3C(c3ccc(C4CCCCC4)cc3)C[C@@]21C (stereo partly drawn) [EC360, 17α-(1,1-difluoro-2-propyn-1-yl)-17β-hydroxy-11β-[4-p-(cyclohexyl)phenyl]estra-4,9-dien-3-one] | 22 nM | 500 nM | 40 nM | 73 nM | 250 nM |  | 
C#CC(F)(F)[C@]1(O)CCC2C3CCC4=CC(=O)CCC4=C3C(c3ccc(C(=C)C)cc3)C[C@@]21C (stereo partly drawn) [EC358, 17α-(1,1-difluoro-2-propyn-1-yl)-17β-hydroxy-11β-[4-p-(1-methylethenyl)phenyl]estra-4,9-dien-3-one] | 35 nM | 100 nM | 40 nM | 25 nM | 50 nM |  | 
C#CC(F)(F)[C@]1(O)CCC2C3CCC4=CC(=O)CCC4=C3C(c3ccc(S(=O)(=O)C4CC4)cc3)C[C@@]21C (stereo partly drawn) [EC361, 17α-(1,1-difluoro-2-propyn-1-yl)-17β-hydroxy-11β-[4-p-(cyclopropylsulfonyl)phenyl]estra-4,9-dien-3-one] | 350 nM | > 10000 nM | 750 nM | 230 nM | 500 nM |  | 
C#CC(F)(F)[C@]1(O)CCC2C3CCC4=CC(=O)CCC4=C3C(c3ccc(CCCCCCC)cc3)C[C@@]21C (stereo partly drawn) [EC362, 17α-(1,1-difluoro-2-propyn-1-yl)-17β-hydroxy-11β-[4-p-(n-heptyl)phenyl]estra-4,9-dien-3-one] | 7.5 nM | 50 nM |  |  | 25 nM |  | IC50 [4]: 25 nM
C#CC(F)(F)[C@]1(O)CC[C@H]2[C@@H]3CCC4=CC(=O)CCC4=C3[C@@H](c3ccc(-c4c(C)cc(C)cc4C)cc3)C[C@@]21C [EC359, 17α-(1,1-difluoro-2-propyn-1-yl)-17β-hydroxy-11β-[4-p-(2,4,6-trimethylphenyl)phenyl]estra-4,9-dien-3-one] | 25 nM | 240 nM | 30 nM | 10 nM |  |  | IC50 ([2]; Homo sapiens, MCF7, read-out: MCF-7 LIF IC50): 30 nM
C#CC(F)(F)[C@]1(O)CCC2C3CCC4=CC(=O)CCC4=C3C(c3ccc(SC)cc3)C[C@@]21C (stereo partly drawn) [EC363, 17α-(1,1-difluoro-2-propyn-1-yl)-17β-hydroxy-11β-[4-p-(methylthio)phenyl]estra-4,9-dien-3-one] | 30 nM |  |  | 30 nM |  |  | 
C#CC(F)(F)[C@]1(O)CCC2C3CCC4=CC(=O)CCC4=C3C(c3ccc(OC)cc3)C[C@@]21C (stereo partly drawn) [EC356, 17α-(1,1-difluoro-2-propyn-1-yl)-17β-hydroxy-11β-[4-p-(methoxy)phenyl]estra-4,9-dien-3-one] |  | 500 nM |  | 45 nM | 250 nM | 45 nM | IC50 (A549 (Lung cancer); Homo sapiens): 40 nM
C#CC(F)(F)[C@]1(O)CCC2C3CCC4=CC(=O)CCC4=C3C(c3ccc(C(C)(C)C)cc3)C[C@@]21C (stereo partly drawn) [EC357, 17α-(1,1-difluoro-2-propyn-1-yl)-17β-hydroxy-11β-[4-p-(t-butyl)phenyl]estra-4,9-dien-3-one] |  |  |  | 35 nM |  | 30 nM | IC50 (A549 (Lung cancer); Homo sapiens): 35 nM; melting point: 127 to 129 °C
C#CC(F)(F)[C@]1(O)CCC2C3CCC4=CC(=O)CCC4=C3C(c3ccc(-n4ccnc4)cc3)C[C@@]21C (some centres unmarked) [EC351] |  |  |  |  |  | 500 nM | melting point: 175 to 178 °C
C#CC(F)(F)[C@]1(O)CCC2C3CCC4=CC(=O)CCC4=C3C(c3ccc(C(C)=O)cc3)C[C@@]21C (stereo partly drawn) [EC332, 17α-(1,1-difluoro-2-propyn-1-yl)-17β-hydroxy-11β-[4-p-(acetyl)phenyl]estra-4,9-dien-3-one] |  |  | 110 nM | 90 nM |  | 40 nM | IC50's in cytotoxicity assays [5]: low nanomolar; IC50 [6]: 10 nM; IC50 [7]: 300 nM; inhibition in the number of colonies formed (T47D breast cancer cells; 100 nM concentration, in words): complete inhibition; inhibition at 0.005 µM (T47D breast cancer cells; Homo sapiens, T47D, 5 nM concentration, read-out: inhibition in the number of colonies formed): 50%; IC50 (A549 (Lung cancer); Homo sapiens): 75 nM; IC50 (LNCaP (AR+ Prostate)): 96 nM; actin / alpha-smooth muscle mediated cytoskeletal disruption of fibroblast [8]: cytoskeletal disruption; apoptosis, p53, MDM2, LIF mediated STAT3 phosphorylation (immunohistochemistry) [9]: induce apoptosis and restore p53 by inhibiting MDM2 and LIF mediated STAT3 phosphorylation; IC50 [4]: 200 nM; tube formation [10]: complete abrogation; P53 levels / MDM2 [11]: restore P53 levels by inhibiting MDM2; IC50 [12]: 45 nM
